Patent US7300940B2, “Integrin α-v β-3 antagonists for use in imaging and therapy” (The United States of America, as represented by the …, priority 2004, dated 2007)
Where a name gives a salt, the structure may show the parent alone.

Target: T1, Integrin protein αvβ3 (Homo sapiens, UniProt P05106+P06756)
T1 construct: purchased Chemicon International, Inc., Temecula, Calif., USA
Experiment: Receptor/ligand challenge assay of biotinylated vitronectin binding to plate-coated integrin αvβ3 (chemiluminescence)
Conditions: for IC50: competition with biotinylated vitronectin for coated αvβ3, 3 hours at room temperature, quadruplicate, 0.00316-1000 nM; for IC50 Ratio Relative to Hood et al.: ratio of IC50 versus the Hood et al. antagonist in the same assay
Method: Receptor/Ligand Challenge Assay of Vitronectin to Integrin αvβ3 Receptor Antagonists in the Presence of Test Compounds
The title compounds of Examples 1 through 8 were tested for their activity as αvβ3 receptor antagonists by the procedure described below, and the buffers, solutions, and reagents used in the procedure are listed following the procedure.
Procedure. Integrin protein αvβ3 (purchased from Chemicon International, Inc., Temecula, Calif., USA) was diluted to a final concentration of 1 μg/mL in coating buffer (2.1). The αvβ3 coating solution was applied to 96-well polystyrene microtiter plate at 100 μL/well. (A total of 10 mL is needed to coat one 96-well plate). The plates were then sealed and allowed to incubate at 4° C. for at least 8 hours. The coating solution was then removed and the plate was washed two times with 300 μL/well of washing solution (2.2). Blocking buffer (2.3) was then added in amounts of 150 μL/well and the plate was incubated at room temperature for 2 hours. The blocking buffer was then removed, and the integrin antagonistic substances (117 μL of 1.25 μM (in H2O)) were added in quadruplicate to column 1 of the twelve well columns of the plate. For example, 117 μL of 1.25 μM 4-[2-(3,4,5,6-tetrahydropyrimidin-2 ylamino)ethyloxy]benzoyl-2-(S)-aminoethylsulfonylamino-β-alanine, the antagonist described by Hood et al. referenced above was added to column 1, rows A-D and 117 μL of 1.25 μM of the antagonist of Example 1 was added to column 1, […]. Binding buffer (2.4) (80 μL) was added to the remaining wells of the plate (column 2-12, rows A-F). A multichannel pipet was used to transfer 37 μL aliquots of the solutions from column 1 to column 2. The solutions were then mixed in the column 2 wells by drawing them up and down in the pipet 15 times. Solutions (37 μL) were then transferred from column 2 to column 3 and mixed by being drawn up and down in the pipet 15 times. The process was repeated across the columns to column 12, and the last 37 μL of solution was discarded. Biotinylated Vitronectin solution (2.5) was then added (20 μL/well, 0.1 μg/well). The final volume was 100 μL total per well, and the concentrations (nM) of analytes in columns 1-12 respectively were as follows: 1000, 316, 100, 31.6, 10.0, 3.16, 1.00, 0.316, 0.100, 0.0316, 0.01, and 0.00316.
The plate was agitated for thorough mixing of the solutions, then covered and incubated at room temperature for 3 hours. The solutions were then discarded and the plate was washed 3 times with 170 μL/well of washing solution (2.2). NeutrAvidin-HRP solution (2.6) was then added (100 μL/well, 0.01 μg/well), cover, and the plate was incubated at room temperature for 30 minutes. The solutions in the wells were then discarded and the plate was washed 3 times with 170 μL/well of washing solution (2.2). Chemiluminescent Substrate solution (2.7) was then added to the plate (100 μL/well), and the luminescence was read using the Wallac Victor 1420 Multilabel Counter (PerkinElmer, Inc., Boston, Mass., USA). A plot of average luminescence vs. concentration was generated using KaleidaGraph (version 3.5) software and the IC50 values were calculated using the following formula: Max−Max*M0^m1/(m2^m1+M0^m1);m1=1;m2=1, where Max is the maximum luminescence observed.
The results are expressed in the table below, both in terms of the 50% inhibitory concentration (IC50) of each test compound and the ratio of 50% inhibitory concentration (IC50) of the test compound to that of the Hood et al. antagonist 4-[2-(3,4,5,6-tetrahydropyrimidin-2-ylamino)ethyloxy]benzoyl-2-(S)-aminoethylsulfonylamino-β-alanine.

T1 sequence (P06756 31-889 limits assumed): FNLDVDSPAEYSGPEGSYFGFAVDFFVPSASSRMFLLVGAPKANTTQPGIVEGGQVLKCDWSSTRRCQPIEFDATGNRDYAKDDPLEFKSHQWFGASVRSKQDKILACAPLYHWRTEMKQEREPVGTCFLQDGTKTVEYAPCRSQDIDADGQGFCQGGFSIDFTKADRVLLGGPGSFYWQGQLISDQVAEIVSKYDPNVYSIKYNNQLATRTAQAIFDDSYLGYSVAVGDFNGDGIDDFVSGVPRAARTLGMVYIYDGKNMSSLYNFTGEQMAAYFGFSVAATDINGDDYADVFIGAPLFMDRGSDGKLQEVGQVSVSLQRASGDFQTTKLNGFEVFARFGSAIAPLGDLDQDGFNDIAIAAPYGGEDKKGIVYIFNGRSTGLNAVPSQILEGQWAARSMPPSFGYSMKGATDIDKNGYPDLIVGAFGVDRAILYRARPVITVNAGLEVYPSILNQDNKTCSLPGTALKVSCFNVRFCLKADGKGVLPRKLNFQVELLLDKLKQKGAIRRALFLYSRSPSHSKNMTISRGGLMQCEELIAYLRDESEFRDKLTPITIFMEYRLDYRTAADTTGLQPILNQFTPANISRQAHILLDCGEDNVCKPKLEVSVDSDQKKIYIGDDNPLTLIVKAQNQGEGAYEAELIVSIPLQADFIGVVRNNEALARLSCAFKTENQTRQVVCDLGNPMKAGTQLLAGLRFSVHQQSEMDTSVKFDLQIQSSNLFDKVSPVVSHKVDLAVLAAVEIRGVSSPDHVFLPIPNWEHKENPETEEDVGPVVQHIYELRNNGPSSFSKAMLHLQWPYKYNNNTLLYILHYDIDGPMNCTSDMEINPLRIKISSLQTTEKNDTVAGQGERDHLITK
T1 sequence (P06756 891-1048 limits assumed): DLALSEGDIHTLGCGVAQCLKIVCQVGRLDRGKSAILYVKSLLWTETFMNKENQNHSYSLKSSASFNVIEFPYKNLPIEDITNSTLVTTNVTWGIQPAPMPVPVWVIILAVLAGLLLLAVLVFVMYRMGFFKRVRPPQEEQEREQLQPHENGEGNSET
T1 sequence (P05106 27-788): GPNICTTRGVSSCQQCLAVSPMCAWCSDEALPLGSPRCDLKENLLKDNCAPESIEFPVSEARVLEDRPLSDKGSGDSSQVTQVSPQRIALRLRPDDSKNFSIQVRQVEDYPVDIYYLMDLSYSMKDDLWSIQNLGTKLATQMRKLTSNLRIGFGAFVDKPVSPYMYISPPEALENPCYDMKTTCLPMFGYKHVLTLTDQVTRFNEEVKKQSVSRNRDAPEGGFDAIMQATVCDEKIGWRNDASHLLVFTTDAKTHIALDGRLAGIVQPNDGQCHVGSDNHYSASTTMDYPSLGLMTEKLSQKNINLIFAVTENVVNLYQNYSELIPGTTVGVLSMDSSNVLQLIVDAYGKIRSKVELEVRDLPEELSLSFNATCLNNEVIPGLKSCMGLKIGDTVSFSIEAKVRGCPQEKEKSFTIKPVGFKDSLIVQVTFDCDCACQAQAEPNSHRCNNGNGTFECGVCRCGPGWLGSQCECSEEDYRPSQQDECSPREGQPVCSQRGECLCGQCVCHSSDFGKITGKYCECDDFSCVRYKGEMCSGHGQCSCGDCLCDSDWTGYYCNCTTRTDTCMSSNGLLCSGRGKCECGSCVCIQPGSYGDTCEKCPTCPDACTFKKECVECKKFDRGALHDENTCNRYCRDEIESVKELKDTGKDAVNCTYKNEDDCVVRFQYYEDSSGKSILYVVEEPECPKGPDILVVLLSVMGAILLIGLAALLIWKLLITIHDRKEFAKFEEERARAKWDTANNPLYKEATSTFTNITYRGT

| IC50 [nM] | IC50 Ratio Relative to Hood et al. | SMILES |
| --- | --- | --- |
| 6.68 ± 0.54 | 3.6 ± 0.7 | NCCCOC(=O)NCCS(=O)(=O)N[C@@H](CNC(=O)c1ccc(OCCNC2=NCCCN2)cc1)C(=O)O [Example 6] |
| 3.64 ± 0.3 | 4.3 ± 0.6 | NCCOC(=O)NCCS(=O)(=O)N[C@@H](CNC(=O)c1ccc(OCCNC2=NCCCN2)cc1)C(=O)O [Example 4, 4-[2-(3,4,5,6-Tetrahydropyrimidin-2-ylamino)ethyloxy]benzoyl-2-(S)-[N-(3-amino-ethyl-1-carbamyl)]-aminoethylsulfonylamino-β-alanine] |
| 14.1 ± 1.4 | – | NCCS(=O)(=O)N[C@@H](CNC(=O)c1ccc(OCCNC2=NCCCN2)cc1)C(=O)O [Hood et al., 4-[2-(3,4,5,6-tetrahydropyrimidin-2-ylamino)ethyloxy]benzoyl-2-(S)-aminoethylsulfonylamino-β-alanine, reference compound] |
| 3.13 ± 0.33 | 1.3 ± 0.5 | NCCCCOC(=O)NCCS(=O)(=O)N[C@@H](CNC(=O)c1ccc(OCCNC2=NCCCN2)cc1)C(=O)O [Example 8, 4-[2-(3,4,5,6-Tetrahydropyrimidin-2-ylamino)ethyloxy]benzoyl-2-(S)-[N-(3-amino-butyl-1-carbamyl)]-aminoethylsulfonylamino-β-alanine] |

The next lines start with the compound.

| SMILES | IC50 [nM] | IC50 Ratio Relative to Hood et al. |
| --- | --- | --- |
| CCCCOC(=O)NCCCOC(=O)NCCS(=O)(=O)N[C@@H](CNC(=O)c1ccc(OCCNC2=NCCCN2)cc1)C(=O)O [Example 5, 4-[2-(3,4,5,6-Tetrahydropyrimidin-2-ylamino)ethyloxy]benzoyl-2-(S)-[N-(3-butyloxycarbonylamino-propyl-1-carbamyl)]-aminoethylsulfonylamino-β-alanine] | 1.02 ± 0.12 | 11.2 ± 2.4 |
| CC(C)(CN)COC(=O)NCCS(=O)(=O)N[C@@H](CNC(=O)c1ccc(OCCNC2=NCCCN2)cc1)C(=O)O [Example 2, 4-[2-(3,4,5,6-Tetrahydropyrimidin-2-ylamino)ethyloxy]benzoyl-2-(S)-[N-(3-amino-neopenta-1-carbamyl)]-aminoethylsulfonylamino-β-alanine Hydrochloride] | 2.94 ± 0.19 | 7.0 ± 0.7 |
| CCCCOC(=O)NCC(C)(C)COC(=O)NCCS(=O)(=O)N[C@@H](CNC(=O)c1ccc(OCCNC2=NCCCN2)cc1)C(=O)O [Example 1, 4-[2-(3,4,5,6-Tetrahydropyrimidin-2-ylamino)ethyloxy]benzoyl-2-(S)-[N-(3-butyloxycarbonylamino-neopenta-1-carbamyl)]-aminoethylsulfonylamino-β-alanine] | 0.72 ± 0.08 | 17.3 ± 4.7 |
| CCCCOC(=O)NCCOC(=O)NCCS(=O)(=O)N[C@@H](CNC(=O)c1ccc(OCCNC2=NCCCN2)cc1)C(=O)O [Example 3, 4-[2-(3,4,5,6-Tetrahydropyrimidin-2-ylamino)ethyloxy]benzoyl-2-(S)-[N-(3-butyloxycarbonylamino-ethyl-1-carbamyl)]-aminoethylsulfonylamino-β-alanine] | 1.7 ± 0.2 | 8.8 ± 3.5 |
| CCCCOC(=O)NCCCCOC(=O)NCCS(=O)(=O)N[C@@H](CNC(=O)c1ccc(OCCNC2=NCCCN2)cc1)C(=O)O [Example 7, 4-[2-(3,4,5,6-Tetrahydropyrimidin-2-ylamino)ethyloxy]benzoyl-2-(S)-[N-(3-butyloxycarbonylamino-butyl-1-carbamyl)]-aminoethylsulfonylamino-β-alanine] | 1.34 ± 0.14 | 10.8 ± 2.7 |
